Assay results as given in US8053475B2, “Preparation of the formaurindikarboxyl acid base and its derivations and use” (Vyzkumny Ustav Zivocisne Vyroby, V.V.I., priority 2007, dated 2011).

Test system: Cryptosporidium parvum
Assay: In vivo model of Tzipori (1998), modified: orally infected baby mice treated for 8 days
Design: species or system C57B1/6 baby mice
Conditions: aurintricarboxylic acid 50 and 100 mmol/kg/day orally in 2 equal portions at 12-hr intervals, suckling C57B1/6 mice infected with 100 000 oocysts
Text: In vivo model designed by Tzipori (1998) was used in following modification: Three-day-old, SPF C57B1/6 baby mice (Velaz, Czech Republic) were randomly assigned to groups of 8-9 mice. The baby mice were caged with their mother in sterile microisolators equipped with filter tops under standard conditions. 4-day-old mice were orally infected with 100 000 oocysts and the treatment was initiated at the same time; the daily dose of aurintricarboxylic acid 50 and […] was divided into 2 equal portions and orally administered in 12-hr intervals. A control group received phosphate buffer saline, and paromomycin (100 mg/kg/day) was used as positive control. ATA was prepared fresh before each use by dissolving the drug in aqueous solution of sodium hydroxide or potassium hydroxide at a molar ratio of 1:3 (ATA:NaOH), or in dimethylsulfoxide. […] Intensity of infection was expressed as the number of oocysts in homogenized intestinal tract in the 9th day after infection. The experiment was repeated between 2006 and 2007 and always gave very similar results.
The inihibition aurintricarboxylic acid on experimental Cryptosporidium parvum-infection in suckling C57B16 mice is graphed in FIG. 1.

Compound: O=C(O)C1=CC(=C(c2ccc(O)c(C(=O)O)c2)c2ccc(O)c(C(=O)O)c2)C=CC1=O [aurintricarboxylic acid]
- tolerability of the treatment (visible signs of toxicity): tolerated without any visible signs of toxicity
